Data: US7528159B2, “5-aryl pyridines as 11-beta inhibitors for the treatment of diabetes” (Hoffmann-La Roche Inc., priority 2004, dated 2009)

Target: T1, human 11beta-HSD1 (Homo sapiens, UniProt P28845)
T1 construct: made in house; host or cells: HEK293 cells (ATCC CRL-1573), transient transfection with lipofectamine; microsomal fraction used
Experiment: Microsome assay (cortisone to cortisol conversion, ELISA)
Format: biochemical
Details: microsomes from HEK293 cells transiently expressing human 11beta-HSD1; 60 min, 37° C.; read-out: h 11-beta-HSD 1 IC50
Procedure: The cDNA encoding the human 11beta-HSD1 protein was cloned into the expression vector pcDNA3 (Stratagene). This construct (for details see Alex Odermatt et al.; J Biol. Chem., 1999, Vol. 274, Issue 40, 28762-28770) was used to transiently express the protein in HEK293 cells (ATCC number: CRL-1573, described in Graham, F. L., Smiley, J., Russell, W. C., Nairn, R.; (1977)) using lipofectamine. 48 h after transfection cells were washed twice with ice-cold PBS (Phosphate buffered Saline). To 1 volume of cell suspension in PBS 2 volumes of ice-cold lysis buffer (50 mM Tris; pH7.5; 1 mM EDTA; 100 mM NaCl) were added. The cells were lysed by Potter-homogenization (20 strokes). The resulting homogenate was sonicated with a tip sonicator (10% output; 2×30 sec.) and cleared by a low speed centrifugation (10 min×9000 g; 4° C.). The microsomal fraction was collected by a high speed centrifugation (60 min×110'000 g). […]
Microsomes isolated from HEK293 cells transiently expressing human 11beta-HSD1 (for details see above) were incubated in assay buffer (100 mM NaCl; 1 mM EDTA; 1 mM EGTA; 1 mM MgCl; 250 mM Sucrose; 20 mM Tris pH 7.4; Cortisone 50-200 nM and NADPH 1 mM) together with different concentrations of test substances. […] The amount of Cortisol produced in this assay was determined using a commercially available, ELISA-based Cortisol-detection kit (Distributed by Assay Design, Inc.). […]

T1 sequence (P28845 whole entry): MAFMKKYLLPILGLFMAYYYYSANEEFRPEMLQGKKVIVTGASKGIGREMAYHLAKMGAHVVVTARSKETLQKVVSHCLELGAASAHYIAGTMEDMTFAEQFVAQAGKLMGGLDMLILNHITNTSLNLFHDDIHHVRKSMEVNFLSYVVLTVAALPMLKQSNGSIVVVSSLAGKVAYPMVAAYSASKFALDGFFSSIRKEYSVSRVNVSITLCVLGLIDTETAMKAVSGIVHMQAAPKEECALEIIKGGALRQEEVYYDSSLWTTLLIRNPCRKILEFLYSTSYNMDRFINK

Row | Structure (SMILES) | IC50
1 | Cc1cc(F)ccc1-c1ccc(NS(=O)(=O)c2cccc(Cl)c2)nc1C [Example 110, 3-Chloro-N-[5-(4-fluoro-2-methyl-phenyl)-6-methyl-pyridin-2-yl]-benzenesulfonamide] | 12 nM
2 | Cc1c(Cl)cccc1S(=O)(=O)Nc1ccc(-c2ccccc2Cl)cn1 [Example 2, 3-chloro-N-[5-(2-chloro-phenyl)-pyridin-2-yl]-2-methyl-benzenesulfonamide] | 3 nM
